Patent publication US20230278972A1, “SUBSTITUTED HALOALKYL SULFONANILIDE HERBICIDES” (FMC Corporation, priority 2020, published 2023)

What was measured:
Format in all cases: in vivo
[1] = system: kochia (Bassia scoparia); test: Test A1 preemergence, kochia
Procedure, shortened: (§1)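 Plants grown in pots of loam/sand mix; preemergence = soil-directed spray on seeded pots, postemergence = spray at 1–2 leaves, height 2–10 cm; test chemicals formulated in non-phytotoxic solvent with surfactant.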

[2] = system: corn (Zea mays); test: Test A1 preemergence, corn
Procedure, shortened: as §1

[3] = system: ragweed (common ragweed, Ambrosia artemisiifolia); test: Test A1 postemergence, ragweed; conditions: Postemergence
Procedure, shortened: as §1

[4] = system: galium (catchweed bedstraw, Galium aparine); test: Test A1 postemergence, galium; conditions: Postemergence
Procedure, shortened: (§2)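 Herbicidal response was scored on plants treated either preemergence, by directed spray onto soil of a loam–sand blend after sowing, or postemergence on potted plants at the one- to two-leaf stage, 2–10 cm high. Test chemicals were carried in a non-phytotoxic solvent mix with surfactant.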

[5] = system: soybean (Glycine max); test: Test A1 postemergence, soybean; conditions: Postemergence
Procedure, shortened: as §2

[6] = system: blackgrass (Alopecurus myosuroides); test: Test A1 postemergence, blackgrass; conditions: Postemergence, 0 to 100 scale (0 no effect, 100 complete control)
Procedure, shortened: as §2

[7] = system: Ryegrass, Italian (Italian ryegrass, Lolium multiflorum); test: Test A1 preemergence, Ryegrass, Italian
Procedure, shortened: as §1

[8] = system: ducksalad (Heteranthera limosa); test: Test B1 flooded paddy test, ducksalad; conditions: 250 g ai/ha, Flood, applied to paddy water, 2-leaf stage, visually evaluated after 10 to 14 days
Description: A dash (-) response means no test result.

[9] = 31 g ai/ha, 0 to 100 scale (0 no effect, 100 complete control)
[10] = 125 g ai/ha, 0 to 100 scale, 0 no effect, 100 complete control
[11] = 31 g ai/ha, 0 to 100 scale (0 no effect, 100 complete control), 10 days

| Compound | Plant response rating, Kochia [1, 9] | Plant response rating, Kochia [1, 10] | Plant response rating, Corn [2, 9] | Plant response rating, Corn [2, 10] | Plant response rating, Ragweed [3, 11] | Plant response rating, Ragweed ([3]; 125 g ai/ha, 0 to 100 scale) | Plant response rating, Galium [4, 11] | Plant response rating, Galium ([4]; 125 g ai/ha, 0 to 100 scale) | Plant response rating, Soybean [5, 11] | Plant response rating, Soybean ([5]; 125 g ai/ha, 0 to 100 scale) | Plant response rating, Blackgrass ([6]; 31 g ai/ha, 10 days) | Plant response rating, Blackgrass ([6]; 125 g ai/ha) | Plant response rating, Ryegrass, Italian [7, 9] | Plant response rating, Ryegrass, Italian [7, 10] | Plant response rating, Ducksalad (0 to 100 scale, 0 is no effect, 100 is complete control) [8] |
| --- | --- | --- | --- | --- | --- | --- | --- | --- | --- | --- | --- | --- | --- | --- | --- |
| Cc1cc(C2CC2)c(C2=NOC3CCCC23)cc1NS(=O)(=O)C(F)(F)F (stereo not drawn) [Compound 307] | 0 | 10 | 0 | 0 | 0 | 80 | 40 | 60 | 10 | 50 | 0 | 10 | 50 | 100 | 70 |
| Cc1cc(C)c(N(COC(=O)C(C)C)S(=O)(=O)C(F)(F)F)cc1C1=NOC2CCCC12 (stereo not drawn) [Compound 308] | 20 | 70 | 0 | 60 | 50 | 90 | 60 | 90 | 40 | 60 | 0 | 0 | 60 | 90 | 90 |
| Cc1cc(F)c(C2=NOC3CCCC23)cc1NS(=O)(=O)C(F)(F)F (stereo not drawn) [Compound 310] | 0 | 40 | 0 | 0 | 0 | 30 | 0 | 0 | 20 | 30 | 0 | 0 | 40 | 50 | 0 |
| COc1cc(C)c(NS(=O)(=O)C(F)(F)F)cc1C1=NOC2CCCC12 (stereo not drawn) [Compound 312] | 0 | 0 | 0 | 10 | 0 | 40 | 0 | 30 | 20 | 20 | 0 | 0 | 0 | 40 | 0 |
| COC(=O)OCN(c1cc(C2=NOC3CCCC23)c(C)cc1C)S(=O)(=O)C(F)(F)F (stereo not drawn) [Compound 315] | 0 | 60 | 10 | 20 | 20 | 80 | 70 | 90 | 40 | 60 | 0 | 0 | 70 | 100 | 90 |
| Cc1cc(C)c(N(COC(=O)OC(C)(C)C)S(=O)(=O)C(F)(F)F)cc1C1=NOC2CCCC12 (stereo not drawn) [Compound 316] | 0 | 50 | 0 | 0 | 0 | 50 | 40 | 50 | 10 | 50 | 0 | 0 | 30 | 50 | 90 |
| CCOC1CC(c2cc(NS(=O)(=O)C(F)(F)F)c(C)cc2C)=NO1 (stereo not drawn) [Compound 318] | 60 | 70 | 0 | 70 | 60 | 80 | 60 | 60 | 30 | 40 | 0 | 50 | 50 | 90 | 80 |
